# Measurements: patent US12391677B2, “Thyroid hormone receptor agonists” (INVENTISBIO CO., LTD., priority 2018, dated 2025)
# Marks after values point to notes of the source that are not given here.
# Columns and labels:
# [1] = Human hepatocyte clearance study; type: in vitro ADME
# Protocol: The in vitro human hepatocyte clearance of compounds described here was studied using pooled human hepatocytes purchased from BioreclamationIVT (Westbury, NY, Cat # X008001, Lot # TQJ). The assay was conducted according to manufacturer's instruction. Briefly, 10 mM stock solutions of test compounds and positive control (Verapamil) were prepared in 100% DMSO. […] Incubation media is made of Williams E medium supplemented with 1×GlutaMax. Both thawing medium and incubation medium (serum-free) were placed in a 37° C. water bath for at least 15 minutes prior to use. […] Verapamil was use as a positive control in the assay. Vials of cryopreserved hepatocytes were removed from storage and thawed in a 37° C. water bath with gentle shaking. Contents of the vial were poured into the 50 mL thawing medium conical tube. Vials were centrifuged at 100 g for 10 minutes at room temperature. […] Hepatocyte viability and density were counted using a Trypan Blue exclusion, and then cells were diluted with serum-free incubation medium to a working cell density of 0.5×10^6 viable cells/mL. Then, a portion of the hepatocytes at 0.5×10^6 viable cells/mL was boiled for 5 minutes prior to adding to the plate as negative control to eliminate the enzymatic activity so that little or no substrate turnover should be observed. The boiled hepatocytes were used to prepare negative samples. Aliquots of 198 μL hepatocytes were dispensed into each well of a 96-well non-coated plate. The plate was placed in the incubator on an orbital shaker at 500 rpm for approximately 10 minutes. […] This assay was performed in duplicate. The plate was incubated in the incubator on an orbital shaker at 500 rpm for the designated time points. Twenty-five microliter of contents were transferred and mixed with 6 volumes (150 μL) of cold acetonitrile with IS (200 nM imipramine, 200 nM labetalol and 200 nM diclofenac) to terminate the reaction at time points of 0, 15, 30, 60, 90 and 120 minutes. […] For data analysis, all calculations were carried out using Microsoft Excel. Peak areas were determined from extracted ion chromatograms. The in vitro half-life (t1/2) of parent compound was determined by regression analysis of the percent parent disappearance vs. time curve. […] Conversion of the in vitro t1/2 (in minutes) into the scale-up unbound intrinsic clearance (scaled-up unbound CLint, in mL/min/kg) was done using the following equation (mean of duplicate determinations): Scaled-up unbound CLint=kV/N×scaling factor, where V=incubation volume (0.5 mL); N=number of hepatocytes per well (0.25×10^6 cells).
# [2] = target: ligand binding domain of thyroid hormone receptor alpha (Homo sapiens (Human), UniProt P10827); assay: Thyroid hormone receptor TR-FRET binding assay (TRα LBD); settings: TRα LBD 4 nM
# Protocol: (§1) TR-FRET binding assay was used to test representative compounds herein.
# (§2) The ligand binding domain of thyroid hormone receptor alpha and the ligand binding domain of thyroid hormone receptor beta with GST tag were purchased from Invitrogen. Biotin-SRC2-2 coactivator peptide was purchased from Sangon Biotech, Europium anti-GST and Streptavidin-D2 was from Cisbio.
# (§3) Five microliters of 4× compound serial dilution was added in the 384-well plate, white, low volume, round-bottom assay plate. […] Centrifuge the assay plates at 1000 g for 1 min and incubate 1 hr at RT, protected from light. […] Calculate EC50 by fitting % Activity values and log of compound concentrations to nonlinear regression (dose response—variable slope) with Graphpad 5.0.
# [3] = target: TRβ-GAL4 binding domain chimeric receptors (Homo sapiens (Human), UniProt P10828); assay: Thyroid hormone receptor cell assay (GAL4 luciferase reporter in HEK293-LUC cells); type: cell-based
# Source text: TRα-LBD or TRβ-LBD, coding sequence was inserted into pBIND expression vector (Promega, E1581) to express TRβ-GAL4 binding domain chimeric receptors. This expression vector was transfected into HEK293-LUC host cells with reporter vector (pGL4.35 which carry a stably integrated GAL4 promoter driven luciferase reporter gene). Upon agonist binding to the corresponding TRa-GAL4 or TRb-GAL4 chimeric receptor, the chimeric receptor binds to the GAL4 binding sites and stimulates the reporter gene.
# Seed 2.5×10^6 HEK293-LUC cells into a 60 mm dish and incubated for 16 h at 37° C. under 5% CO2 atmosphere. Mix 12 microliters of Lipo LTX reagent in 250 microliters of Opti-MEM Medium by inversion. Mix 6 ug of DNA in 250 uL of Opti-MEM medium, then add 6 uL of Lipo PLUS Reagent. Add diluted DNA to each tube of diluted Lipo LTX Reagent (1:1 ratio), and mix by Pipettor and incubate at room temperature for 10 min. The reagent mixture was added to a 60 mm dish, incubated with cells for 4-7 h at 37 degrees under 5% CO2 atmosphere.
# 75 nL compound was added into 384 well assay plate using ECHO550 and then add HEK293-LUC cells (transfected, 17,000 cells/well) into the plate using phenol red-free DMEM containing 5% charcoal/dextran-treated FBS and incubated for 16-20 h at […] under 5% CO2 atmosphere. Add 25 uL of Steady-Glo Luciferase Assay Reagent into each well. Shake for 5 min and then record the luminescence value on Envision 2104 plate reader.
# [4] = target: ligand binding domain of thyroid hormone receptor beta (Homo sapiens (Human), UniProt P10828); assay: Thyroid hormone receptor TR-FRET binding assay (TRβ LBD); settings: TRβ LBD 2 nM
# Protocol: as §1, §2, §3
# Chain of ligand binding domain of thyroid hormone receptor alpha (P10827 other isoform, or with tags, fused parts or gaps del 1-162, other chains not shown): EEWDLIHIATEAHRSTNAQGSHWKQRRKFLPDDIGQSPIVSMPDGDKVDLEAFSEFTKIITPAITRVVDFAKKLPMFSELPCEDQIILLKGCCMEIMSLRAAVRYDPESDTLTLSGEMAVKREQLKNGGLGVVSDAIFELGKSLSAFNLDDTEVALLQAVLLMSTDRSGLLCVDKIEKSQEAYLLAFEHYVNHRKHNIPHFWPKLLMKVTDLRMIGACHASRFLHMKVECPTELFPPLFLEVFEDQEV
# Chain of TRβ-GAL4 binding domain chimeric receptors (P10828 217-461, stated change not applied): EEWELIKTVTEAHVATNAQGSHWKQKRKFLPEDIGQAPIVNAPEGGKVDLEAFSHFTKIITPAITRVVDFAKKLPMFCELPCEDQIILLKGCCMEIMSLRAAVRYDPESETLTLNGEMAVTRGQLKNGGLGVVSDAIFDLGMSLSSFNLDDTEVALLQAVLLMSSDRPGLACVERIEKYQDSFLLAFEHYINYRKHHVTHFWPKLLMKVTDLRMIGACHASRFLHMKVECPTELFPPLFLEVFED
# Chain of ligand binding domain of thyroid hormone receptor beta (P10828 217-461): as the sequence (P10828 217-461, stated change not applied) above
Compound,EC50 [2] [nM],EC50 [3] [µM],EC50 [4] [nM],also measured
Cc1nn(-c2cc(Cl)c(Oc3cc(C4CCC4)c(=O)[nH]n3)c(Cl)c2)c(=O)[nH]c1=O [Compound 9],–,–,–,"CLint scaled at 1 µM ([1]; human, hepatocytes): 9.5 mL/min/kg; half-life at 1 µM ([1]; human, hepatocytes): 371 min; hepatocyte CLint at 1 µM ([1]; human, hepatocytes): 3.73 µL/min/1e6 cells; Human Hepatocyte Remaining Percentage @ 120 min ([1]; human, hepatocytes, 2 h, 1 µM): 79%"
CC(C)c1cc(Oc2c(Cl)cc(-n3nc(C#N)c(=O)[nH]c3=O)cc2C(F)(F)F)n[nH]c1=O [Compound 47],1490,4.13,160,–
Cc1nn(-c2cc(Br)c(Oc3cc(C4CC4)c(=O)[nH]n3)c(Br)c2)c(=O)[nH]c1=O [Compound 23],560,0.18,60,–
Cc1nn(-c2cc(Cl)c(Oc3cc(Cc4ccccc4)c(=O)[nH]n3)c(Cl)c2)c(=O)[nH]c1=O [Compound 27],–,–,–,"Human Hepatocyte Remaining Percentage @ 120 min ([1]; human hepatocytes, 120 min): 100%; Human Scale-up Clint ([1]; human hepatocytes, scaling factor 2544.3): 1.04 mL/min/kg; Human In vitro Clint ([1]; human, hepatocytes): 0.41 μL/min/10^6 cells; Human In vitro T1/2 ([1]; human, hepatocytes): 3406 min"
Cc1nn(-c2cc(Cl)c(Oc3cc(C(C)C)c(=O)[nH]n3)c(Cl)c2)c(=O)[nH]c1=O [Compound 35],2570,–,–,"Human In vitro Clint ([1]; human, hepatocytes): 2.21 μL/min/10^6 cells; Human In vitro T1/2 ([1]; human, hepatocytes): 626 min; Human Scale-up Clint ([1]; human, hepatocytes): 5.63 mL/min/kg; Human Hepatocyte Remaining Percentage @ 120 min ([1]; human, hepatocytes, 2 h): 89%"
N#Cc1nn(-c2cc(Br)c(Oc3cc(C4CC4)c(=O)[nH]n3)c(Br)c2)c(=O)[nH]c1=O [Compound 8],–,–,–,"Human In vitro T1/2 ([1]; human, hepatocytes): ∞*; Human In vitro Clint ([1]; human, hepatocytes, 1 µM): 0.00* μL/min/10^6 cells; Human Scale-up Clint ([1]; human, hepatocytes, 1 µM): 0.00* mL/min/kg; Human Hepatocyte Remaining Percentage @ 120 min ([1]; human, hepatocytes, 2 h, 1 µM): 98%"
N#Cc1nn(-c2cc(Cl)c(Oc3cc(C4CC4)c(=O)[nH]n3)c(C(F)(F)F)c2)c(=O)[nH]c1=O [Compound 65],1040,4.1,150,"CLint scaled at 1 µM ([1]; human, hepatocytes): 4.53 mL/min/kg; half-life at 1 µM ([1]; human, hepatocytes): 778 min; hepatocyte CLint at 1 µM ([1]; human, hepatocytes): 1.78 µL/min/1e6 cells; Human Hepatocyte Remaining Percentage @ 120 min ([1]; human, hepatocytes, 2 h, 1 µM): 94%"
Cc1nn(-c2cc(Cl)c(Oc3cc(Cc4ccc(C#N)cc4)c(=O)[nH]n3)c(Cl)c2)c(=O)[nH]c1=O [Compound 66],–,–,–,"CLint scaled at 1 µM ([1]; human, hepatocytes): 4 mL/min/kg; half-life at 1 µM ([1]; human, hepatocytes): 881 min; hepatocyte CLint at 1 µM ([1]; human, hepatocytes): 1.57 µL/min/1e6 cells; Human Hepatocyte Remaining Percentage @ 120 min ([1]; human, hepatocytes, 2 h, 1 µM): 93%"
N#Cc1nn(-c2cc(Cl)c(Oc3cc(C4CC4)c(=O)[nH]n3)c(Br)c2)c(=O)[nH]c1=O [Compound 7],5820,7.38,370,–
N#Cc1nn(-c2cc(Cl)c(Oc3cc(Cc4ccc5[nH]ncc5c4)c(=O)[nH]n3)c(Cl)c2)c(=O)[nH]c1=O [Compound 73],1180,11.2,100,–
N#Cc1nn(-c2cc(Br)c(Oc3cc(C4CCCC4)c(=O)[nH]n3)c(Br)c2)c(=O)[nH]c1=O [Compound 20],> 90000,4.98,170,–
CC(C)c1c[nH]c2ccc(Oc3c(Cl)cc(-n4nc(C#N)c(=O)[nH]c4=O)cc3Cl)cc12 [Compound 56],1030,1.05,90,–
Cc1nn(-c2cc(Cl)c(Oc3cc(C4CCCCC4)c(=O)[nH]n3)c(Cl)c2)c(=O)[nH]c1=O [Compound 15],60200,4.61,4330,–
"CC(C)c1cc(Oc2c(Cl)cc(-n3nc(C#N)c(=O)[nH]c3=O)cc2Cl)n[nH]c1=O [MGL-3196, reference compound]",–,–,–,"CLint scaled at 1 µM ([1]; human, hepatocytes): 21.3 mL/min/kg; half-life at 1 µM ([1]; human, hepatocytes): 165 min; hepatocyte CLint at 1 µM ([1]; human, hepatocytes): 8.39 µL/min/1e6 cells; Human Hepatocyte Remaining Percentage @ 120 min ([1]; human, hepatocytes, 2 h, 1 µM): 60%"
Cc1nn(-c2cc(Br)c(Oc3cc(C(C)C)c(=O)[nH]n3)c(Br)c2)c(=O)[nH]c1=O [Compound 46],310,0.09,30,–
N#Cc1nn(-c2cc(Cl)c(Oc3cc(C4CC4)c(=O)[nH]n3)c(Cl)c2)c(=O)[nH]c1=O [Compound 1],5760,7.1,540,–
CCC(CC)c1cc(Oc2c(Cl)cc(-n3nc(C)c(=O)[nH]c3=O)cc2Cl)n[nH]c1=O [Compound 40],38800,0.61,410,–
N#Cc1nn(-c2cc(Cl)c(Oc3cc(CC4CCCCC4)c(=O)[nH]n3)c(Cl)c2)c(=O)[nH]c1=O [Compound 17],> 90000,12.2,720,–
CC(C)c1c[nH]c2ccc(Oc3c(Cl)cc(-n4nc(C#N)c(=O)[nH]c4=O)cc3C(F)(F)F)cc12 [Compound 83],140,0.23,20,–
"Cc1nn(-c2cc(Cl)c(Oc3cc(C(C)C4CCCCC4)c(=O)[nH]n3)c(Cl)c2)c(=O)[nH]c1=O (single isomer, unassigned) [Compound 75]",1130,0.27,160,–
N#Cc1nn(-c2cc(Cl)c(Oc3cc(C4CCCC4)c(=O)[nH]n3)c(Cl)c2)c(=O)[nH]c1=O [Compound 2],36700,9.88,760,–
CCc1nn(-c2cc(Cl)c(Oc3cc(C(C)C)c(=O)[nH]n3)c(Cl)c2)c(=O)[nH]c1=O [Compound 37],9820,1.22,1550,–
"Cc1nn(-c2cc(Cl)c(Oc3cc([C@@H](C)c4ccccc4)c(=O)[nH]n3)c(Cl)c2)c(=O)[nH]c1=O (single isomer, unassigned) [Compound 71]",14600,0.46,300,–
